Assay results taken from patent US4680172A, “Devices and methods for treating memory impairment” (Ciba-Geigy Corporation, priority 1985, dated 1987).
Several values for one entry are separate records, joined by “and”; a condition that tells them apart may be missing. Equal values may be shown once.

What was measured:
[1] = Dissociation to the free base in buffer; assay type: physicochemical; details: pH 10 buffer
From the text: (§1) The partion coefficient (K) of a compound between an aqueous phase and mineral oil has been used as an indication of its potential to diffuse across skin. Permeability appears to be optimal when the partition coefficient is 1. Arecoline in pH 10 buffer (99.9% dissociation to the free base) yielded partition coefficients of 0.756 and 0.654 for concentrations of 1.0 M and 0.01 M, respectively. Thus, arecoline in its free base form is expected to have good in vitro transdermal flux.

[2] = Transdermal diffusion (flux) of aqueous arecoline through human cadaver skin, Franz diffusion cell; assay type: in vitro ADME
Description: In order further to test the permeability of arecoline to human skin, the transdermal diffusion of aqueous arecoline was monitored using human cadaver skin mounted in a Franz diffusion cell; see Current Problems in Dermatology, 7, 58 (1978) and the description of Franz diffusion cells and apparatus published by the Crown Glass Company, a copy of which may be found in the file history of this case. The flux, J, of each solution was calculated from a plot of change in concentration versus time.
The transdermal diffusion of arecoline was studied in several aqueous buffers from pH values of 6.4 to 9.0.
Most of the skin samples were obtained from the back area of human cadavers. There was no systematic study to determine if the choice of donor-side would change the rate; however, it is presumed that the rate will be fastest in portions of the anatomy where the stratum corneum is relatively thin (chest, back, anterior forearm) and slowest where the stratum corneum is thickest (heel of hand, bottom of foot).
Franz diffusion cells utilize the finite dose technique of in vitro drug delivery. Human cadaver skin was mounted in a diffusion chamber where it remined in constant contact with solution on both sides. The stratum corneum was in contact with a thin layer of concentrated drug in solution (donor side). The receiver side contained a constantly stirred, isotonic saline solution maintained at 32° C. Diffusion of the compound was monitored by removing aliquots from the receiver side and analyzing these samples by HPLC.
The human skin used in all experiments was obtained from a medical school. All cadavers were refrigerated at death and excision was performed within 24 hours post-mortem. The skin was first treated with Betadine surgical scrub (Povidone-Iodine solution) and surfactant (the skin was scrubbed if dirty), rinsed with sterile water and then with Betadine rinse solution. The skin was then air-dried and swabbed with mineral oil prior to excision. A dermatome was used for excising the skin to […]. (-350 microns) thickness. Saline solution was used to rinse the excess mineral oil from the skin prior to treatment with Eagle's minimole essential medium (minerals, amino acids and sugars). To this solution, 15% glycerol was added and the skin was allowed to set for two hours. It was then removed from solution, packaged and frozen in liquid N2. The samples, packed in dry ice were shipped in styrofoam containers and kept frozen until use.
For the flux experiments, skin samples were removed from the freezer and thawed immediately prior to use. The samples were examined visually for any tears or holes, then cut into smaller pieces, peeled from the gauze backing and mounted across the diffusion chamber with the stratum corneum side up. The donor-side cap was placed on top and the unit was clamped in place. The receiver-side was filled with a saline solution and stirred. The material in the receiver-side was sterile normal saline solution, which was adjusted to approximate the tonicity of the buffer solution on the donor-side. One ml of the drug solution was pipeted onto the donor-side of the skin and 50 microliter aliguots were withdrawn from the receiver-side at the various time intervals. These samples were injected onto an HPLC column under the aforementioned conditions.
The donor solutions were prepared as 1.0 M (approximately 20% W/V) arecoline HCl or arecoline HBr in a phosphate, citrate, borate buffer adjusted to various pH values. Each flux experiment was repeated three to five times.

[3] = Stability of arecoline in solution; assay type: physicochemical; details: alkaline buffers
[4] = Partition coefficient (K) between aqueous phase and mineral oil; assay type: physicochemical; details: pH 10 buffer
From the text: as §1

For `COC(=O)C1=CCCN(C)C1` [arecoline], the “dissociation to the free base” value [1] was 99.9%, the “rate of arecoline diffusion versus pH” value ([2]; aqueous buffers, pH 6.4 to 9.0) was “increases with increasing pH values” and the “difference in rate between Caucasian and Negro skin” value ([2]; lower pH values (below 8)) was “differences were observed between these two skin types”. For the same compound, the Flux ([2]; pH 6.4 of 1M solution, skin RC (Right Chest), donor N) was 0.017 mg/cm^2 /hr, the “Mean Flux” value ([2]; pH 6.4 of 1M solution, skin donor N) was 0.017 mg/cm^2 /hr and the “Mean Flux” value ([2]; pH 7.0 of 1M solution, does not include the Negro skin) was 0.069 mg/cm^2 /hr. The Flux ([2]; pH 7.0 of 1M solution, skin RB (Right Back), donor C) was 0.0545 mg/cm^2 /hr. and 0.0678 mg/cm^2 /hr. and 0.0833 mg/cm^2 /hr, the Flux ([2]; pH 7.0 of 1M solution, skin RB (Right Back), donor N) was 0.0101 mg/cm^2 /hr. and 0.0057 mg/cm^2 /hr and the “Mean Flux” value ([2]; pH 7.5 of 1M solution, does not include the Negro skin) was 0.185 mg/cm^2 /hr. The Flux ([2]; pH 7.5 of 1M solution, skin RB (Right Back), donor C) was 0.1651 mg/cm^2 /hr. and 0.1486 mg/cm^2 /hr. and 0.2246 mg/cm^2 /hr. and 0.2003 mg/cm^2 /hr, the Flux ([2]; pH 7.5 of 1M solution, skin RB (Right Back), donor N) was 0.0383 mg/cm^2 /hr and the “Mean Flux” value ([2]; pH 8.0 of 1M solution, C and N skin) was 0.448 mg/cm^2 /hr. For the same compound, the Flux ([2]; pH 8.0 of 1M solution, skin LB (Left Back), donor C) was 0.4524 mg/cm^2 /hr. and 0.3817 mg/cm^2 /hr, the “amount transferred across skin” value ([2]; pH 9.0, across 5 cm^2 in 24 hours) was “approximately 85 mgs” and the “Mean Flux” value ([2]; pH 9.0 of 1M solution, C and N skin) was 0.837 mg/cm^2 /hr. For the same compound, the Flux ([2]; pH 9.0 of 1M solution, skin LB (Left Back), donor C) was 0.8868 mg/cm^2 /hr. and 0.8154 mg/cm^2 /hr, the Flux ([2]; pH 9.0 of 1M solution, skin RB (Right Back), donor C) was 0.8551 mg/cm^2 /hr and the “difference in rate between Caucasian and Negro skin” value ([2]; pH values of 8 and 9) was “There does not appear to be any difference in rate”. For the same compound, the “stability of the free base in solution” value [3] was “rapidly hydrolizes”, the “partition coefficient (K)” value ([4]; 0.01 M) was 0.654 and the “partition coefficient (K)” value ([4]; 1.0 M) was 0.756.
